From BindingDB's records for doi:10.1016/S0960-894X(00)80511-9 (1992)

Target: Seed linoleate 13S-lipoxygenase-1 (Glycine max) (UniProt P08170)
Experiment: Inhibitory activity against soybean 15-lipoxygenase was evaluated

Sequence of Seed linoleate 13S-lipoxygenase-1 (Glycine max) (P08170 whole entry, looked up): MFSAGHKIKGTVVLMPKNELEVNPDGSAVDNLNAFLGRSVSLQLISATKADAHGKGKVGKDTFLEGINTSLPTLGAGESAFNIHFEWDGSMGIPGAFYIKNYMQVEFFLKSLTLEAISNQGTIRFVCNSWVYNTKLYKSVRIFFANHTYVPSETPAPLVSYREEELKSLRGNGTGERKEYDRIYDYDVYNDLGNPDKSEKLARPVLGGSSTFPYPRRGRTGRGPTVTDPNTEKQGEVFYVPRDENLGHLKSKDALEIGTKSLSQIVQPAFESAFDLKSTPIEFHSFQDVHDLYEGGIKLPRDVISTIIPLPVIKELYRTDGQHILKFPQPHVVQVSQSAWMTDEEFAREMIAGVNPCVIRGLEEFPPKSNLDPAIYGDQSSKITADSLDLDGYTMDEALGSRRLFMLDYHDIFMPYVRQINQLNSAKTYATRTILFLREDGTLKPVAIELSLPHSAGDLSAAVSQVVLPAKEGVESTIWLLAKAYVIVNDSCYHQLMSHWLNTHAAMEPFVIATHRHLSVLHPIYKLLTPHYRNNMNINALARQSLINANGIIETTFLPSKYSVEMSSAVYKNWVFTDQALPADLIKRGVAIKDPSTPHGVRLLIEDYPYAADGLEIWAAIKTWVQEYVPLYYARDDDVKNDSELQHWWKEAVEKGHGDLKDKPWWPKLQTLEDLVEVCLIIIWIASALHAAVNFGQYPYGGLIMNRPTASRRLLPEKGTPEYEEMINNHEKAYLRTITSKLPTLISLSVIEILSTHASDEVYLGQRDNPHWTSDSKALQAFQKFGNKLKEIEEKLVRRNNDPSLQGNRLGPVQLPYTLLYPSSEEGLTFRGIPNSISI

Q: Which IC50 does the source give for `NC1=NN(c2cccc(C(F)(F)F)c2)CC1` [1-(3-Trifluoromethyl-phenyl)-4,5-dihydro-1H-pyrazol-3-ylamine] here?
A: The IC50 was 213 µM.
